Reference: ChEMBL document CHEMBL5050844 (2019)

Columns and labels:
[1] = Induction of anti-CD3/CD28 antibodies-stimulated human T cell activation at 0.3 uM assessed fold increase in CD25 expression measured by ELISA assay; format: functional, T cell line
[2] = Induction of anti-CD3/CD28 antibodies-stimulated human T cell activation at 1 uM assessed fold increase in IL-2 secretion measured by ELISA assay; format: functional, T cell line
[3] = Induction of anti-CD3/CD28 antibodies-stimulated human T cell activation at 1 uM assessed fold increase in CD25 expression measured by ELISA assay; format: functional, T cell line
[4] = target: E3 ubiquitin-protein ligase CBL-B (Homo sapiens, UniProt Q13191); experiment: Inhibition of N-terminal Avi-tagged human CBL-B (36 to 427 residues) incubated with 60 nM Src kinase for 1.5 hrs followed by incubation with fluorescently labeled UbcH5B-Ub for 1 hr and measured by TR-FRET assay; format: single protein
E3 ubiquitin-protein ligase CBL-B, sequence (Q13191 whole entry, the tested form may be a part): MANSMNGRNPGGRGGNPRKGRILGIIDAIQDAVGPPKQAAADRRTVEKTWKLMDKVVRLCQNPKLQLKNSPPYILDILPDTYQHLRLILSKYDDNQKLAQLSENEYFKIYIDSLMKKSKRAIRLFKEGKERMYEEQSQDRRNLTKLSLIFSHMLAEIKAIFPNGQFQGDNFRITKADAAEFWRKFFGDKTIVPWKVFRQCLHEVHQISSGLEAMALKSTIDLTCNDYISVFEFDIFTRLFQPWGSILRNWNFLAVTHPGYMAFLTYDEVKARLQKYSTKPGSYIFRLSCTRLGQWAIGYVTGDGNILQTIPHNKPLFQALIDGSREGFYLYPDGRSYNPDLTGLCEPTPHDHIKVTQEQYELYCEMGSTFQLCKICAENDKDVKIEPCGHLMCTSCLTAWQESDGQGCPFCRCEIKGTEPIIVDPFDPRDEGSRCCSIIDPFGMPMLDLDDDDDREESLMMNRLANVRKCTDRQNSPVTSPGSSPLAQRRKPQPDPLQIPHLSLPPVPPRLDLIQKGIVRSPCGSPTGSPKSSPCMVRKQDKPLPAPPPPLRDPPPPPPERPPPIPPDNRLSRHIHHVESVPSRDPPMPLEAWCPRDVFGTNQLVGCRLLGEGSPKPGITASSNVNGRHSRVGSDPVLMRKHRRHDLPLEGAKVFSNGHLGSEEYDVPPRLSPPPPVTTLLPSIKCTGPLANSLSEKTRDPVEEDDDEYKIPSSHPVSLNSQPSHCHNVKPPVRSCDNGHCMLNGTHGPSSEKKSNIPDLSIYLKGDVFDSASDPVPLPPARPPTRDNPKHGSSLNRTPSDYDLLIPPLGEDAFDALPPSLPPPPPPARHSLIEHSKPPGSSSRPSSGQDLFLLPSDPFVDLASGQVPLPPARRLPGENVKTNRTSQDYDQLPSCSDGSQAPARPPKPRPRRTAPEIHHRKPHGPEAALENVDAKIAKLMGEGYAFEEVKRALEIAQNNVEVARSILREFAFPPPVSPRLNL

[5] = Induction of anti-CD3 antibodies-stimulated human T cell activation at 1 uM assessed fold increase in CD25 expression measured by ELISA assay; format: functional, T cell line
[6] = Induction of anti-CD3/CD28 antibodies-stimulated human T cell activation at 0.3 uM assessed fold increase in IL-2 secretion measured by ELISA assay; format: functional, T cell line
[7] = Induction of anti-CD3 antibodies-stimulated human T cell activation at 1 uM assessed fold increase in IL-2 secretion measured by ELISA assay; format: functional, T cell line

SMILES | fold change (FC) [1] | fold change (FC) [2] | fold change (FC) [3] | IC50 [4] [nM] | fold change (FC) [5] | fold change (FC) [6] | fold change (FC) [7]
Cn1cc2c(n1)CCCN2Cc1cc2c(c(C(F)(F)F)c1)CN(c1cccc(C3(Cc4nncn4C)COC3)c1)C2=O | 1.01 | >=7.5 | 1.31 | < 100 | >=1.001 | 5 | >=0.201
Cn1cnnc1CC1(c2cccc(NC(=O)c3cc(CN4CCC4)nc(C4CC4)n3)c2)COC1 | 1.01 | 5 | 1.31 | < 100 | 0.801 | 2.51 | 0.051
Cn1cnnc1CC1(c2cccc(N3Cc4c(cccc4C(F)(F)F)C3=O)c2)CC(F)(F)C1 | 1.01 | 5 | 1.01 | < 100 | >=1.001 | 2.51 | >=0.201
COc1cc(C(=O)Nc2cccc(C3(Cc4nncn4C)COC3)c2)nc(C2CC2)n1 | 1.01 | >=7.5 | 1.31 | < 100 | >=1.001 | 5 | 0.151
CN1CCN(c2cc3c(c(C(F)(F)F)c2)CN(c2cccc(C4(Cc5nncn5C)COC4)c2)C3=O)CC12CC2 | 1.31 | 5 | 1.51 | < 100 | >=1.001 | 2.51 | 0.151
Cn1cnnc1CC1(c2cccc(NC(=O)c3cc(C4CC4)nc4ccnn34)c2)COC1 | 1.01 | 2.51 | 1.01 | < 100 | 0.601 | 1.01 | <=0.05
Cn1cnnc1CC1(c2cccc(N3Cc4c(cc(CN5C6CCCC5CC6)cc4C(F)(F)F)C3=O)c2)COC1 | >=1.76 | >=7.5 | >=1.76 | < 100 | >=1.001 | >=7.5 | >=0.201
C[C@H]1CN(Cc2cc3c(c(C(F)(F)F)c2)CN(c2cccc(C4(Cc5nncn5C)COC4)c2)C3=O)CCO1 | 1.31 | >=7.5 | 1.31 | < 100 | 0.601 | 5 | >=0.201
CN1CC2CCC1CN2c1cc2c(c(C(F)(F)F)c1)CN(c1cccc([C@@](C)(F)C(F)(F)c3nncn3C)c1)C2=O (stereo partly drawn) | 1.31 | 2.51 | 1.31 | < 100 | >=1.001 | 1.01 | 0.101
Cn1cnnc1CC1(c2cccc(N3Cc4c(cc(CN5CCC(C(F)F)CC5)cc4C(F)(F)F)C3=O)c2)COC1 | 1.31 | >=7.5 | 1.31 | < 100 | >=1.001 | 5 | 0.151
Cn1cnnc1CC1(c2cccc(NC(=O)c3cc(CN4CCCCC4)nc(C4CC4)n3)c2)COC1 | >=1.76 | >=7.5 | >=1.76 | < 100 | >=1.001 | >=7.5 | >=0.201
Cn1cnnc1CC1(c2cccc(N3Cc4c(cc(C5CCC5)cc4C(F)(F)F)C3=O)c2)COC1 | 1.01 | 2.51 | 1.31 | < 100 | 0.801 | 2.51 | 0.101
Cn1cnnc1CC1(c2cccc(N3Cc4c(cc(C5=CCOC5)cc4C(F)(F)F)C3=O)c2)COC1 | 1.01 | 2.51 | 1.31 | < 100 | 0.801 | 2.51 | 0.101
Cn1cnnc1CC1(c2cccc(N3Cc4c(cc(CN5CCCC(F)(F)CC5)cc4C(F)(F)F)C3=O)c2)COC1 | 1.01 | >=7.5 | 1.01 | < 100 | >=1.001 | >=7.5 | >=0.201
Cc1cc(C(=O)Nc2cccc(C3([C@H](F)c4nncn4C)COC3)c2)nc(C2CC2)n1 | 1.01 | 5 | 1.01 | < 100 | >=1.001 | 2.51 | 0.151
Cn1cnnc1CC1(c2cccc(N3Cc4c(cc(OC5CC5)cc4C(F)(F)F)C3=O)c2)COC1 | 1.01 | 2.51 | 1.01 | < 100 | >=1.001 | 1.01 | 0.151
CN1CC2CC1CN2c1cc2c(c(C(F)(F)F)c1)CN(c1cccc([C@@](C)(F)C(F)(F)c3nncn3C)c1)C2=O (single isomer, unassigned; 562) | 1.51 | >=7.5 | 1.51 | < 100 | >=1.001 | 5 | >=0.201
Cc1conc1CC1(c2cccc(NC(=O)c3cc(CN4CC[C@H](O)C4)nc(C4CC4)n3)c2)COC1 | 1.31 | >=7.5 | 1.31 | < 100 | >=1.001 | >=7.5 | >=0.201
Cn1cnnc1[C@@H](F)C1(c2cccc(N3Cc4c(cc(CN5CCCC5)cc4C(F)(F)F)C3=O)c2)COC1 | >=1.76 | >=7.5 | >=1.76 | < 100 | >=1.001 | 5 | >=0.201
Cn1cnnc1CC1(c2cccc(N3Cc4c(cc(CN5CC[C@@H](CO)C(F)(F)C5)cc4C(F)(F)F)C3=O)c2)COC1 | 1.31 | >=7.5 | 1.31 | < 100 | 0.801 | 2.51 | 0.101
Cn1cnnc1CC1(c2cccc(N3Cc4c(cc(C(F)(F)CO)cc4C(F)(F)F)C3=O)c2)COC1 | 1.01 | 1.01 | 1.01 | < 100 | 0.801 | 1.01 | 0.101
Cn1cnnc1CC1(c2cccc(N3Cc4c(cc(CN5CCCc6c5cnn6C)cc4C(F)(F)F)C3=O)c2)COC1 | 1.01 | >=7.5 | 1.01 | < 100 | >=1.001 | 5 | >=0.201
Cn1cnnc1CC1(c2cccc(N3Cc4c(cc(CN5CCC(C)(C#N)CC5)cc4C(F)(F)F)C3=O)c2)COC1 | 1.31 | >=7.5 | 1.31 | < 100 | >=1.001 | >=7.5 | 0.151
CN1C[C@@H]2C[C@H]1CN2c1cc2c(c(C(F)(F)F)c1)CN(c1cccc(C3(Cc4nncn4C)COC3)c1)C2=O (single isomer, unassigned) | 1.31 | >=7.5 | 1.31 | < 100 | >=1.001 | >=7.5 | >=0.201
Cn1cnnc1CC1(c2cccc(N3Cc4c(cc(C(O)c5ccccc5)cc4C(F)(F)F)C3=O)c2)COC1 (stereo not drawn) | 1.31 | >=7.5 | 1.31 | < 100 | >=1.001 | 5 | >=0.201
CO[C@@H]1CCN(Cc2cc3c(c(C(F)(F)F)c2)CN(c2cccc(C4(Cc5nncn5C)COC4)c2)C3=O)C[C@@H]1F (relative stereo) | 1.31 | >=7.5 | 1.31 | < 100 | >=1.001 | >=7.5 | >=0.201
CC1CN(c2cc3c(c(C(F)(F)F)c2)CN(c2cccc(C4(Cc5nncn5C)COC4)c2)C3=O)C1 | 1.01 | 2.51 | 1.01 | < 100 | 0.601 | 1.01 | 0.101
CN(C)Cc1cc(C(=O)Nc2cccc(C3(Cc4nncn4C)COC3)c2)nc(C2CC2)n1 | 1.31 | >=7.5 | 1.31 | < 100 | >=1.001 | 2.51 | 0.101
CC(c1cc2c(c(C3CC3)n1)CN(c1cccc(C3(Cc4nncn4C)COC3)c1)C2=O)N1CC2(CC2)C1 (stereo not drawn) | 1.01 | 2.51 | 1.01 | < 100 | 0.601 | 1.01 | <=0.05
